Assay results published in US20240058392A1, “COMPOSITION COMPRISING SEA CUCUMBER GENITAL GLAND EXTRACT, COMPOUND DERIVED FROM SEA CUCUMBER OVARY EXTRACT, AND USE THEREOF” (BIOINFORMATICS & MOLECULAR DESIGN RESEARCH CENTER, priority 2020, published 2024).
Like-named read-outs stand apart in the source and are kept apart here.

What was measured:
[1] = tested on: 3T3-L1 cells; assay: Glucose Uptake-Glo Assay, saponin compounds; type: cell-based; conditions: Mus musculus, read-out: Fold Relative to Control (glucose uptake)
Experimental: The 3T3-L1 cells were cultured in a high glucose DMEM medium in which 10% Calf serum and penicillin-streptomycin were added, and subcultured per 2-3 days. […] After 2 days, it was replaced with a medium containing insulin, and the medium was replaced again per 2 days to induce differentiation.
For the differentiation-completed 3T3-L1 cells, starvation was conducted for 16 hours, and then a sea cucumber-derived single compound was treated in a serum-free medium at a concentration of 2.5 ug/mL for 6 hours. The cultured supernatant was recovered and for the 3T3-L1 cells, using Glucose Uptake-Glo Assay Kit, the glucose transport activity degree was measured using a luminometer.

[2] = tested on: FAS, PPARγ, C/EBPα, and FABP4; assay: Expression of adipogenesis-related proteins in 3T3-L1 cells treated with single compounds; type: cell-based
Experimental: In order to investigate the effect on expression of the adipocytes differentiation-related proteins by the sea cucumber extract, expression of the related proteins was confirmed through western blot. The differentiation-completed 3T3-L1 cells were washed with PBS, and then lysis was conducted with RIPA buffer, and then the proteins were separated by molecular weight through SDS-PAGE. After that, it was transferred to a PVDF membrane and it was blocked using 5% skim milk for 30 minutes. Then, it was reacted with a primary antibody, and then a secondary antibody was attached to confirm protein expression using an ECL solution.
In order to figure out the mechanism of the fat accumulation inhibitory efficacy of the single compound examined above, the degree of expression of proteins of FAS, PPARγ, C/EBPα, and FABP4, which were adipogenesis-related proteins was confirmed.

[3] = tested on: 3T3-L1 cells; assay: Oil red O staining, single compounds of sea cucumber ovary extract; type: cell-based
Experimental: The differentiation-completed 3T3-L1 cells were fixed with 4% formaldehyde for 1 hour, and then fats were stained using a 0.5% Oil red O staining solution to confirm the degree of differentiation. For quantitative analysis of adipose differentiation, the dye stained in the cells was dissolved with 100% isopropyl alcohol and the absorbance was measured at 500 nm.
In order to investigate the effect on adipose differentiation of the 3T3-L1 cells of the single compound in the sea cucumber ovary extract, a total 8 of compounds were treated with a differentiation medium at a concentration of 2.5 and 5 μg/ml for 48 hours.

[4] = tested on: 3T3-L1 cells; assay: 3T3-L1 cell viability of single compounds separated from sea cucumber ovary extract; conditions: single compounds 2.5-5 μg/ml
[5] = tested on: 3T3-L1 cells
[6] = differentiated 3T3-L1 cells, compound 2.5 ug/mL, 6 hours, serum-free medium
[7] = 1 μg/ml, compared to the control group

SMILES | fold induction at 2.5 µg/mL [1, 6] | expression of adipogenesis-related proteins FAS, PPARγ, C/EBPα, and FABP4 [2] | fold induction at 2.5 µg/mL ([1]; 3T3-L1, 6 h) | other results
C=C(C)CCC[C@](C)(O)[C@@H]1[C@@H]2CC3(C)C4=CCC5C(C)(C)[C@@H](O[C@@H]6OCC(O[C@@H]7OC(CO)C(O)[C@H](O)C7O)[C@H](O)C6O[C@@H]6OC(CO)C(O[C@@H]7OC(CO)C(O)[C@H](O[C@@H]8OC(CO)C(O)[C@H](O)C8O)C7O)[C@H](O)C6O)CC[C@]5(C)C4CCC13C(=O)O2 (stereo partly shown) [S1] | 1.25 |  |  | 
C=C(C)CCC[C@](C)(O)[C@@H]1[C@@H]2CC3(C)C4=CCC5C(C)(C)[C@@H](O[C@@H]6OCC(O[C@@H]7OC(CO)C(O)[C@H](O)C7O)[C@H](O)C6O[C@@H]6OC(C)C(O[C@@H]7OC(CO)C(O)[C@H](O[C@@H]8OC(CO)C(O)[C@H](O)C8O)C7O)[C@H](O)C6O)CC[C@]5(C)C4CCC13C(=O)O2 (stereo partly shown) [S2] | 1.43 |  |  | expression of adipogenesis-related proteins FAS, PPARγ, C/EBPα, and FABP4 ([2]; compared to the control, concentration not given): a significant difference in protein expression was not shown
C=C(C)CCC[C@](C)(O)[C@@H]1[C@@H]2CC3(C)C4=CCC5C(C)(C)[C@@H](O[C@@H]6OCC(O[C@@H]7OC(CO)C(O)[C@H](O)C7O)[C@H](O)C6O[C@@H]6OC(C)C(O[C@@H]7OC(CO)C(O)[C@H](O[C@@H]8OC(CO)C(O)[C@H](OC)C8O)C7O)[C@H](O)C6O)CC[C@]5(C)C4CCC13C(=O)O2 (stereo partly shown) [S3] | 1.1 |  |  | inhibition at 1 µg/mL ([3]; Mus musculus, 3T3-L1, 1 μg/ml (lowest of the series from 1 μg/ml to 5 μg/ml), read-out: inhibition of fat accumulation): ~16%; inhibition at 5 µg/mL ([3]; Mus musculus, 3T3-L1, 5 μg/ml (highest of the series from 1 μg/ml to 5 μg/ml), read-out: inhibition of fat accumulation): ~80%; inhibition of fat accumulation ([3]; middle concentration of the series from 1 μg/ml to 5 μg/ml (2.5 μg/ml by the method)): ~40%; expression of adipogenesis-related proteins FAS, PPARγ, C/EBPα, and FABP4 [2, 7]: definitely reduced; expression of adipogenesis-related proteins FAS, PPARγ, C/EBPα, and FABP4 ([2]; from 2.5 μg/ml): expression of the related proteins was definitely reduced; change of 3T3-L1 cell viability [4]: a significant decrease was shown
C=C(C)CCC[C@@]1(C)OC(=O)C23CC=C4C(CCC5C(C)(C)[C@@H](O[C@@H]6OCC(O[C@@H]7OC(CO)C(O)[C@H](O[C@@H]8OC(CO)C(O)[C@H](OC)C8O)C7O)[C@H](O)C6O[C@@H]6OC(CO)C(O[C@@H]7OC(CO)C(O)[C@H](O[C@@H]8OC(CO)C(O)[C@H](O)C8O)C7O)[C@H](O)C6O)CC[C@]45C)C2(C)CC(=O)C31 (stereo partly shown) [S4] | 1.6 |  |  | expression of adipogenesis-related proteins FAS, PPARγ, C/EBPα, and FABP4 [2, 7]: definitely reduced; expression of adipogenesis-related proteins FAS, PPARγ, C/EBPα, and FABP4 ([2]; from 2.5 μg/ml): expression of the related proteins was definitely reduced; change of 3T3-L1 cell viability [4]: a significant decrease was shown
C=C(C)CCC[C@@]1(C)OC(=O)C23CC=C4C(CCC5C(C)(C)[C@@H](O[C@@H]6OCC(O[C@@H]7OC(CO)C(O)[C@H](O[C@@H]8OC(CO)C(O)[C@H](O)C8O)C7O)[C@H](O)C6O[C@@H]6OC(CO)C(O[C@@H]7OCC(O)[C@H](O[C@@H]8OC(CO)C(O)[C@H](OC)C8O)C7O)[C@H](O)C6O)CC[C@]45C)C2(C)CC(=O)C31 (stereo partly shown) [S5, holotoxin D1] |  | expression of the related proteins was definitely reduced | 1.38 | change of 3T3-L1 cell viability [5]: a significant decrease was shown
C=C(C)CCC[C@@]1(C)OC(=O)C23CC=C4C(CCC5C(C)(C)[C@@H](O[C@@H]6OCC(O[C@@H]7OC(CO)C(O)[C@H](O[C@@H]8OC(CO)C(O)[C@H](O)C8O)C7O)[C@H](O)C6O[C@@H]6OC(C)C(O[C@@H]7OC(CO)C(O)[C@H](O[C@@H]8OC(CO)C(O)[C@H](OC)C8O)C7O)[C@H](O)C6O)CC[C@]45C)C2(C)CC(=O)C31 (stereo partly shown) [S6, holotoxin B] |  | a definite decrease in protein expression | 1.24 | 
C=C(C)CCC[C@@]1(C)OC(=O)C23CC=C4C(CCC5C(C)(C)[C@@H](O[C@@H]6OCC(O[C@@H]7OC(CO)C(O)[C@H](O[C@@H]8OC(CO)C(O)[C@H](OC)C8O)C7O)[C@H](O)C6O[C@@H]6OC(C)C(O[C@@H]7OC(CO)C(O)[C@H](O[C@@H]8OC(CO)C(O)[C@H](OC)C8O)C7O)[C@H](O)C6O)CC[C@]45C)C2(C)CC(=O)C31 (stereo partly shown) [S8, holotoxin A] |  | a definite decrease in protein expression | 1.43 | 
C=C(C)CCC[C@](C)(O)[C@@H]1[C@@H]2CC3(C)C4=CCC5C(C)(C)[C@@H](O[C@@H]6OCC(O[C@@H]7OC(CO)C(O)[C@H](O)C7O)[C@H](O)C6O[C@@H]6OC(C)C(O[C@@H]7OC(CO)C(O)[C@H](O)C7O)[C@H](O)C6O)CC[C@]5(C)C4CCC13C(=O)O2 (stereo partly shown) [S9] | 1.03 |  |  | 
